Source: patent publication US10028961B2, “Therapeutically active compounds and their methods of use” (AGIOS PHARMACEUTICALS, INC., priority 2013, dated 2018)
Where two headings read alike, the source gives them in different places.

How the values were obtained:
[1] = tested on: Neurosphere cells (TS603); test: Cellular assay for IDH1m R132H inhibitors, 2-HG by LC-MS in neurosphere cells (TS603); type: cell-based; conditions: 2-HG in media at 48 hours
Outline: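 TS603 neurosphere cells in NeuroCult medium were dosed with compound (0.25% DMSO final) at 37 C, 5% CO2. After 48 hours, medium 2-HG was measured by LC-MS. At 72 hours, viability was read by CellTiter-Glo luminescence.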

[2] = tested on: U87MG pLVX-IDH2 R140Q-neo cells; test: U87MG pLVX-IDH2 R140Q-neo cell based assay, 2-HG by LC-MS; conditions: Homo sapiens, U-87 MG
[3] = target: IDH1 wt/IDH1 R132H heterodimer (Homo sapiens (Human), UniProt O75874, R132H); test: In vitro assay for IDH1m R132H inhibitors, IDH1 wt/IDH1 R132H heterodimer, NADPH depletion (diaphorase/resazurin); type: biochemical
Sequence of IDH1 wt/IDH1 R132H heterodimer (O75874 whole entry R132H): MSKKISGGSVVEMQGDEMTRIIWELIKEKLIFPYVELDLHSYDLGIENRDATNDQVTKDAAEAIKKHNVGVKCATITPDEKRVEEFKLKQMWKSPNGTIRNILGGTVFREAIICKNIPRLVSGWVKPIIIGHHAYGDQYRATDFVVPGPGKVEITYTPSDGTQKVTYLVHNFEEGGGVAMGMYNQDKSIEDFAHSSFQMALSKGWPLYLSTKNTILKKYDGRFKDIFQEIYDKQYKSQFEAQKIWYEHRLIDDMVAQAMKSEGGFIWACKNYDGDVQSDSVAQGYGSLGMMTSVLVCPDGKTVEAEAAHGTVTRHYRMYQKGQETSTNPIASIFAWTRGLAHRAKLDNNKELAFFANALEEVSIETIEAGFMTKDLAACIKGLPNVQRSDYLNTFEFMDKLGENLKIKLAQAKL
Sequence of IDH1 wt/IDH1 R132H heterodimer (O75874 whole entry, stated change not applied): as the sequence (O75874 whole entry R132H) above, with H132R counted along it
Outline: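 Purified IDH1wt-his/IDH1R132H-flag heterodimer (sf9 co-expression) pre-incubated 1 hr at room temperature with compound and NADPH before α-KG addition. Remaining NADPH read by diaphorase/resazurin conversion to fluorescent resorufin, 5 min at 25° C. Compounds diluted 1:50 from DMSO; IC50 determined.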

HT1080 cells = test: Cellular assay for IDH1m R132C inhibitors, 2-HG by LC-MS in HT1080 cells; type: cell-based; conditions: Homo sapiens, HT-1080
Experimental: The following describes the experimental procedures that can be used to obtain data on column 5 of Table 4.
Cells (HT1080 or U87MG) are grown in T125 flasks in DMEM containing 10% FBS, 1× penicillin/streptomycin and 500 ug/mL G418 (present in U87MG cells only). They are harvested by trypsin and seeded into 96 well white bottom plates at a density of 5000 cell/well in 100 ul/well in DMEM with 10% FBS. No cells are placed in columns 1 and 12. Cells are incubated overnight at 37° C. in 5% CO2. The next day test compounds are made up at 2× the final concentration and 100 ul are added to each cell well. The final concentration of DMSO is 0.2% and the DMSO control wells are plated in row G. The plates are then placed in the incubator for 48 hours. At 48 hours, 100 ul of media is removed from each well and analyzed by LC-MS for 2-HG concentrations. The cell plate is placed back in the incubator for another 24 hours. At 72 hours post compound addition, 10 mL/plate of Promega Cell Titer Glo reagent is thawed and mixed. The cell plate is removed from the incubator and allowed to equilibrate to room temperature. Then 100 ul of Promega Cell Titer Glo reagent is added to each well of media. The cell plate is then placed on an orbital shaker for 10 minutes and then allowed to sit at room temperature for 20 minutes. The plate is then read for luminescence with an integration time of 500 ms.
HT1080 cells are maintained in RPMI containing 10% FBS, 1× penicillin/streptomycin. […] The next day compounds are prepared in 100% DMSO and then diluted in media for a final concentration of 0.2% DMSO. Media is removed from the cell plates and 200 μL of the compound dilutions are added to each well. […] The cell plates are then allowed to incubate another 24 hours.

IDH2 R140Q = IDH2 R140Q (Homo sapiens (Human), UniProt P48735, R140Q); test: In vitro assay for IDH2m R140Q inhibitors, cofactor depletion assay; type: biochemical; conditions: IDH2 R140Q enzyme
Sequence of IDH2 R140Q (P48735 40-452 R140Q): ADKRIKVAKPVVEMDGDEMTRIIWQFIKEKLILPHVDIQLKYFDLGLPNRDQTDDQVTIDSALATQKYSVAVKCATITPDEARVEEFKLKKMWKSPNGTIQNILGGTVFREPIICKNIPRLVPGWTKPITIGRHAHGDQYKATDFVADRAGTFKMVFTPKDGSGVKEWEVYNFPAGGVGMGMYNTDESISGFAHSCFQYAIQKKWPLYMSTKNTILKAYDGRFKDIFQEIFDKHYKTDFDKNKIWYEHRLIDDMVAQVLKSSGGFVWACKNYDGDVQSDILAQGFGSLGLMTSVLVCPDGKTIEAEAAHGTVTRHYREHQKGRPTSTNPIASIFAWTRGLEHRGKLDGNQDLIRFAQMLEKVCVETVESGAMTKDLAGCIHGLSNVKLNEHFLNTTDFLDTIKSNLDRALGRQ
Outline: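 Remaining cofactor measured fluorimetrically: diaphorase/resazurin Stop Mix […], halting the reaction. Before that, mutant enzyme and compound sat 1 h at RT, then substrate mix (4 μM NADPH, 1.6 mM α-KG) was added for 16 h at RT.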

[4] = target: IDH1-R132H homodimer enzyme (Homo sapiens (Human), UniProt O75874, R132H); test: In vitro assay IDH1-R132H homodimer, NADPH depletion assay with NADPH/NADP preincubation; type: biochemical; conditions: 5 μM NADPH and 37.5 μM NADP
Sequence of IDH1-R132H homodimer enzyme (O75874 whole entry R132H): as the sequence (O75874 whole entry R132H) above
Experimental: The following describes the experimental procedures that can be used to obtain data on columns 3 and 5 of Table 5.
A test compound is prepared as 10 mM stock in DMSO and diluted to 50× final concentration in DMSO, for a 50 μl reaction mixture. IDH enzyme activity converting alpha-ketoglutarate to 2-hydroxyglutaric acid is measured using a NADPH depletion assay. In the assay the remaining cofactor is measured at the end of the reaction with the addition of a catalytic excess of diaphorase and resazurin, to generate a fluorescent signal in proportion to the amount of NADPH remaining. […] The reaction is started with the addition of 10 μl of Substrate Mix ([…], 5 mM alpha-ketoglutarate, in Assay Buffer) and the mixture is incubated for 60 minutes at room temperature.

[5] = IDH1 wt/IDH1 R132H heterodimer, 300 μM NADP (saturated), read-out: IDH1 wt/R132H NADPH/NADP IC50 saturated
[6] = IDH1 wt/R132H heterodimer, NADPH/NADP, not saturated, read-out: IDH1 wt/R132H NADPH/NADP IC50 not saturated

Row | SMILES | IC50 [1] | IC50 [2] | IC50 [3, 5] | IC50 (HT1080 cells) | IC50 (IDH2 R140Q) | IC50 [3, 6] | IC50 [4]
1 | FC(F)c1csc(-c2nc(NC3CCC(F)(F)C3)nc(NC3CCC(F)(F)C3)n2)n1 (stereo not shown) [Compound 402] | < 0.05 µM | < 0.05 µM | 0.05 to 0.1 µM | < 0.05 µM | < 0.05 µM | – | –
2 | FC(F)c1csc(-c2nc(NC3CC(F)(F)C3)nc(NC3CC(F)(F)C3)n2)n1 [Compound 403] | < 0.05 µM | < 0.05 µM | < 0.05 µM | < 0.05 µM | < 0.05 µM | – | –
3 | N#CC1(c2cc(Nc3nc(NC4CC5(C4)CC(F)(F)C5)nc(-c4cncc(C(F)(F)F)n4)n3)ccn2)CC1 [Compound 385] | < 0.05 µM | < 0.05 µM | 0.05 to 0.1 µM | 0.1 to 1 µM | < 0.05 µM | – | –
4 | FC1(F)CCC(Nc2nc(NC3Cc4cccnc4C3)nc(-c3cccc(C(F)(F)F)n3)n2)C1 (stereo not shown) [Compound 188] | < 0.05 µM | – | – | < 0.05 µM | – | < 0.05 µM | –
5 | C[C@@H](Nc1nc(N[C@H](C)C2CC2)nc(-c2cc(F)ccc2F)n1)C1CC1 [Compound 292] | – | – | – | > 1 µM | – | 0.1 to 1 µM | –
6 | FC(F)c1cncc(-c2nc(NC3CC(F)(F)C3)nc(NC3CC(F)(F)C3)n2)n1 [Compound 409] | < 0.05 µM | < 0.05 µM | < 0.05 µM | < 0.05 µM | < 0.05 µM | – | –
7 | COc1ccc2c(c1)CC(Nc1nc(NC3CCC(F)(F)C3)nc(-c3cccc(C(F)(F)F)n3)n1)C2 (stereo not shown) [Compound 166] | < 0.05 µM | – | – | 0.1 to 1 µM | – | < 0.05 µM | –
8 | FC(F)c1cncc(-c2nc(NC3CCC(F)(F)C3)nc(NC3CCC(F)(F)C3)n2)n1 (stereo not shown) [Compound 408] | < 0.05 µM | < 0.05 µM | < 0.05 µM | < 0.05 µM | < 0.05 µM | – | –
9 | FC(F)c1ccnc(-c2nc(NC3CCC(F)(F)C3)nc(NC3CCC(F)(F)C3)n2)n1 (stereo not shown) [Compound 412] | < 0.05 µM | 0.05 to 0.1 µM | 0.1 to 1 µM | 0.1 to 1 µM | – | – | –
10 | FC(F)c1ccnc(-c2nc(NC3CCC(F)(F)CC3)nc(NC3CCC(F)(F)CC3)n2)n1 [Compound 308] | 0.1 to 1 µM | 0.1 to 1 µM | – | – | 0.1 to 1 µM | > 1 µM | > 1 µM
11 | Fc1cc(F)cc(Nc2nc(N[C@H]3CCC(F)(F)C3)nc(-c3cncc(C(F)(F)F)n3)n2)c1 [Compound 368] | < 0.05 µM | < 0.05 µM | < 0.05 µM | – | < 0.05 µM | – | < 0.05 µM
12 | FC1(F)CCC(Nc2nc(NC3CCC(F)(F)C3)nc(-c3cccc(C4CC4)n3)n2)C1 (stereo not shown) [Compound 258] | – | < 0.05 µM | – | > 1 µM | – | 0.1 to 1 µM | –

Further lines, results first:

Row | IC50 [1] | IC50 [2] | IC50 [3, 5] | IC50 (HT1080 cells) | IC50 (IDH2 R140Q) | IC50 [3, 6] | IC50 [4] | SMILES
13 | < 0.05 µM | < 0.05 µM | – | 0.1 to 1 µM | < 0.05 µM | < 0.05 µM | – | CC(F)(F)c1cccc(-c2nc(NC3CCC(F)(F)CC3)nc(NC3CCC(F)(F)CC3)n2)n1 [Compound 218]
14 | < 0.05 µM | < 0.05 µM | 0.05 to 0.1 µM | 0.1 to 1 µM | < 0.05 µM | – | – | FC1(F)CC(Nc2nc(Nc3ccnc(C(F)(F)F)c3)nc(-c3cncc(C(F)(F)F)n3)n2)C1 [Compound 390]
15 | < 0.05 µM | < 0.05 µM | < 0.05 µM | 0.05 to 0.1 µM | < 0.05 µM | – | – | FC1(F)CC(Nc2nc(Nc3ccnc(C(F)(F)F)c3)nc(-c3nc(C(F)(F)F)cs3)n2)C1 [Compound 388]
16 | < 0.05 µM | < 0.05 µM | – | < 0.05 µM | – | – | – | C[C@H](Nc1nc(N[C@H](C)C(F)(F)F)nc(-c2cccc(Cl)n2)n1)C(F)(F)F [Compound 136]
17 | < 0.05 µM | < 0.05 µM | – | < 0.05 µM | – | – | – | C[C@H](Nc1nc(N[C@@H](C)C(F)(F)F)nc(-c2cccc(Cl)n2)n1)C(F)(F)F [Compound 142]
18 | – | < 0.05 µM | – | < 0.05 µM | – | – | – | CC(Nc1nc(NC(C)C(F)(F)F)nc(-c2cccc(Cl)n2)n1)C(F)(F)F (stereo not shown) [Compound 130]
19 | < 0.05 µM | < 0.05 µM | – | < 0.05 µM | – | – | – | C[C@@H](Nc1nc(N[C@H](C)C(F)(F)F)nc(-c2cccc(Cl)n2)n1)C(F)(F)F [Compound 101]
